# Data taken from patent publication EP0293880B1, “Antihyperlipidemic and antiatherosclerotic urea compounds” (priority 1987, dated 1988).
# Target: acyl-CoA:cholesterol acyl-transferase (ACAT)
# Assay: In vitro ACAT inhibition test (radio-labeled cholesterol oleate formed from radio-labeled oleic acid in rabbit intestinal microsomes)
# Format: biochemical
# Details: tissue preparation containing rabbit intestinal microsomes; concentration required to inhibit 50% expression of the enzyme; read-out: IC₅₀
# Description: The ability of representative compounds of the present invention to inhibit ACAT was measured using an in vitro test more fully described in Field, F. J. and Salone, R. G., Biochemica et Biophysica 712: 557-570 (1982). The test assesses the ability of a test compound to inhibit the acylation of cholesterol by oleic acid by measuring the amount of radio-labeled cholesterol oleate formed from radio-labeled oleic acid in a tissue preparation containing rabbit intestinal microsomes. The data appear in Table 1 where they are expressed as IC₅₀ values; i.e. the concentration of test compound required to inhibit 50% expression of the enzyme.
row,IC50 [nM],Structure (SMILES)
1,80,"Cc1cccc(C)c1NC(=O)NC1(c2ccccc2)CCCC1 [Example 1, N-(2,6-dimethylphenyl)-N'-(1-phenylcyclopentyl)urea]"
2,230,"CCc1cccc(CC)c1NC(=O)NC1(c2ccccc2)CCC1 [Example 2, N-(2,6-diethylphenyl)-N'-(1-phenylcyclobutyl)urea]"
3,120,"CCc1cccc(CC)c1NC(=O)NC1(c2ccccc2)CCCC1 [Example 3, N-(2,6-diethylphenyl)-N'-(1-phenylcyclopentyl)urea]"
4,88,"CCc1cccc(CC)c1NC(=O)NCC1(c2ccccc2)CC1 [Example 4, N-(2,6-diethylphenyl)-N'-[(1-phenylcyclopropyl)methyl]urea]"
5,700,"COc1cc(OC)c(NC(=O)NC2(c3ccccc3)CCCC2)c(OC)c1 [Example 5, N-(1-phenylcyclopentyl)-N'-(2,4,6-trimethoxyphenyl)urea]"
6,130,"Cc1cccc(C)c1NC(=O)NC1(c2cccs2)CCCCC1 [Example 6, N-(2,6-dimethylphenyl)-N'-[1-(2-thienyl)cyclohexyl]urea]"
7,48,"CCc1cccc(CC)c1NC(=O)NC1(c2cccs2)CCCCC1 [Example 7, N-(2,6-diethylphenyl)-N'-[1-(2-thienyl)cyclohexyl]urea]"
8,43,"CC(C)c1cccc(C(C)C)c1NC(=O)NC1(c2cccs2)CCCCC1 [Example 8, N-[2,6-bis(1-methylethyl)]-N'-[1-(2-thienyl)cyclohexyl]urea]"
9,51,"CCc1cccc(CC)c1NC(=O)NCC1(c2ccccc2)CCCCC1 [Example 9, N-(2,6-diethylphenyl)-N'-[(1-phenylcyclohexyl)methyl]urea]"
10,154,"Cc1cccc(C)c1NC(=O)NCC1(c2ccccc2)CCCC1 [Example 10, N-(2,6-dimethylphenyl)-N'-[(1-phenylcyclopentyl)methyl]urea]"
11,81,"Cc1cccc(C)c1NC(=O)NCC1(c2ccccc2)CCCCC1 [Example 11, N-(2,6-dimethylphenyl)-N'-[(1-phenylcyclohexyl)methyl]urea]"
12,15,"CCc1cccc(CC)c1NC(=O)NCC1(c2ccccc2)CCCC1 [Example 12, N-(2,6-diethylphenyl)-N'-[(1-phenylcyclopentyl)methyl]urea]"
13,17,"CC(C)c1cccc(C(C)C)c1NC(=O)NCC1(c2ccccc2)CCCC1 [Example 13, N-[2,6-bis(1-methylethyl)phenyl]-N'-[(1-phenylcyclopentyl)methyl]urea]"
14,21,CC(C)c1cccc(C(C)C)c1NC(=O)NCC1(c2ccccc2)CCCCC1 [Example 14]
15,230,"Cc1cccc(C(C)C)c1NC(=O)NC1(c2cccs2)CCCCC1 [Example 15, N-[2-methyl-6-(1-methylethyl)-phenyl]-N'-[1-(2-thienyl)cyclohexyl]urea]"
16,256,"Cc1cccc(C(C)(C)C)c1NC(=O)NC1(c2cccs2)CCCCC1 [Example 16, N-[2-(1,1-dimethylethyl)-6-methyl-phenyl]-N'-[1-(2-thienyl)cyclohexyl]urea]"
17,58,"Cc1cccc(C(C)C)c1NC(=O)NCC1(c2ccccc2)CCCCC1 [Example 17, N-[2-methyl-6-(1-methylethyl)-phenyl]-N'-[(1-phenylcyclohexyl)methyl]urea]"
18,54,"Cc1cccc(C(C)(C)C)c1NC(=O)NCC1(c2ccccc2)CCCCC1 [Example 18, N-[2-(1,1-dimethylethyl)-6-methylphenyl]-N'-[(1-phenylcyclohexyl)methyl]-urea]"
19,20,"CCc1cccc(C(C)C)c1NC(=O)NCC1(c2ccccc2)CCCCC1 [Example 19, N-[2-ethyl-6-(1-methylethyl)-phenyl]-N'-[(1-phenylcyclohexyl)methyl]urea]"
20,16,"Cc1cccc(C(C)C)c1NC(=O)NCC1(c2ccccc2)CCCC1 [Example 20, N-[2-methyl-6-(1-methylethyl)-phenyl]-N'-[(1-phenylcyclopentyl)methyl]urea]"
21,18,"Cc1cccc(C(C)(C)C)c1NC(=O)NCC1(c2ccccc2)CCCC1 [Example 21, N-[2-(1,1-dimethylethyl)-6-methylphenyl]-N'-[(1-phenylcyclopentyl)methyl]-urea]"
22,25,"CCc1cccc(C(C)C)c1NC(=O)NCC1(c2ccccc2)CCCC1 [Example 22, N-[2-ethyl-6-(1-methylethyl)-phenyl]-N'-[(1-phenylcyclopentyl)methyl]urea]"
23,370,"O=C(Nc1ccc(F)cc1F)NC1(c2cccs2)CCCCC1 [Example 23, N-(2,4-difluorophenyl)-N'-[1-(2-thienyl)cyclohexyl]urea]"
24,1280,"O=C(NCC1(c2ccccc2)CCCC1)Nc1ccc(F)cc1F [Example 24, N-(2,4-difluorophenyl)-N'-[(1-phenylcyclopentyl)methyl]urea]"
25,790,"O=C(NCC1(c2ccccc2)CCCCC1)Nc1ccc(F)cc1F [Example 25, N-(2,4-difluorophenyl)-N'-[(1-phenylcyclohexyl)methyl]urea]"
26,39,"O=C(NCC1(c2ccccc2)CCCCC1)Nc1c(Br)cc(F)cc1Br [Example 26, N-(2,6-dibromo-4-fluorophenyl)-N'-[(1-phenyl-cyclohexyl)methyl]urea]"

# Test system: not listed separately
# Assay: In vivo screen PCC (cholesterol-fed rats, total blood cholesterol)
# Design: species or system male Sprague-Dawley rats
# Details: change of total blood cholesterol versus control; 0.05% of the test drug in the diet; after one week
# From the text: In one in vivo screen, designated PCC, male Sprague-Dawley rats (approximately 200 g body weight) are randomly divided into groups and provided ad libidum a regular chow diet (Purina No. 5002, Ralston Purina Co., 711 West Fuesser Road, Mascoutah, Illinois, 62224, USA), supplemented with 5.5% peanut oil, 1.5% cholesterol, and 0.3%-0.5% cholic acid, together with 0.05% of the test drug which is admixed into the diet. After one week the animals are etherized and a blood sample is taken from the heart and mixed with 0.14% ethylenediamine tetraacetic acid (EDTA) to measure the total cholesterol.
row,Structure (SMILES),% Change [%]
1,"CC(C)c1cccc(C(C)C)c1NC(=O)NC1(c2cccs2)CCCCC1 [Example 8, N-[2,6-bis(1-methylethyl)]-N'-[1-(2-thienyl)cyclohexyl]urea]",-69
2,"CC(C)c1cccc(C(C)C)c1NC(=O)NCC1(c2ccccc2)CCCC1 [Example 13, N-[2,6-bis(1-methylethyl)phenyl]-N'-[(1-phenylcyclopentyl)methyl]urea]",-73

# Same assay, conditions: rats on chow diet with 5.5% peanut oil, 1.5% cholesterol, 0.3%-0.5% cholic acid; 0.05% of the test drug admixed into the diet; after one week
row,Structure (SMILES),Total Blood Cholesterol
1,"CC(C)c1cccc(C(C)C)c1NC(=O)NC1(c2cccs2)CCCCC1 [Example 8, N-[2,6-bis(1-methylethyl)]-N'-[1-(2-thienyl)cyclohexyl]urea]",60 (Control = 181) mg/dl
2,"CC(C)c1cccc(C(C)C)c1NC(=O)NCC1(c2ccccc2)CCCC1 [Example 13, N-[2,6-bis(1-methylethyl)phenyl]-N'-[(1-phenylcyclopentyl)methyl]urea]",61 (Control = 224) mg/dl
